# Experimental data: patent publication US11786492B2, “Therapeutic agent for phosphodiesterase inhibition and its related disorders” (Novalead Pharma Inc, priority 2017, dated 2023)
# Columns and labels:
# Human IL-10 = assay: IL-10 release from stimulated PBMCs, ELISA; assay type: cell-based; conditions: LPS 100 ng/mL, 18 hrs
# Description: (§1) Fresh human blood from healthy volunteer was collected in anticoagulant (5 mM) ethylene diamine tetra acetic acid (EDTA) containing tubes. The growth medium used was RPMI-1640 medium (with 3% FBS) and incubated at 37° C. for 60 mins in a 5% CO2 incubator with vehicle used as 1% DMSO. The cell viability was checked at various time points using Alamar blue and fluorescence readings were taken at excitation of 544 nm and emission of 590 nm.
# (§2) PBMCs were stimulated with different stimulators as follows: • a. Cells were exposed to stimulator LPS at 100 ng/mL for 18 hrs to stimulate TNF-α, IL-6, IFN-γ, IL10, IL-1β • b. Cells were exposed to stimulator IFN-γ+LPS at 100 ng/mL+1 μg/mL for 18 hrs to stimulate IL-12 • c. Cells were exposed to stimulator PMA+Ionomycin at 50 ng/mL+1 μg/mL for 18 hrs to stimulate IL-23, IL-22, IL-17A, IL-17F
# (§3) After 18 hrs supernatants were collected and centrifuged to remove any cell debris and aliquots were used for ELISA.
# PDE4B = PDE4B (Homo sapiens, UniProt Q07343); assay: Fluorescence polarization assay PDE4B; assay type: biochemical; conditions: substrate cAMP
# Sequence of PDE4B (Q07343 whole entry, species assumed): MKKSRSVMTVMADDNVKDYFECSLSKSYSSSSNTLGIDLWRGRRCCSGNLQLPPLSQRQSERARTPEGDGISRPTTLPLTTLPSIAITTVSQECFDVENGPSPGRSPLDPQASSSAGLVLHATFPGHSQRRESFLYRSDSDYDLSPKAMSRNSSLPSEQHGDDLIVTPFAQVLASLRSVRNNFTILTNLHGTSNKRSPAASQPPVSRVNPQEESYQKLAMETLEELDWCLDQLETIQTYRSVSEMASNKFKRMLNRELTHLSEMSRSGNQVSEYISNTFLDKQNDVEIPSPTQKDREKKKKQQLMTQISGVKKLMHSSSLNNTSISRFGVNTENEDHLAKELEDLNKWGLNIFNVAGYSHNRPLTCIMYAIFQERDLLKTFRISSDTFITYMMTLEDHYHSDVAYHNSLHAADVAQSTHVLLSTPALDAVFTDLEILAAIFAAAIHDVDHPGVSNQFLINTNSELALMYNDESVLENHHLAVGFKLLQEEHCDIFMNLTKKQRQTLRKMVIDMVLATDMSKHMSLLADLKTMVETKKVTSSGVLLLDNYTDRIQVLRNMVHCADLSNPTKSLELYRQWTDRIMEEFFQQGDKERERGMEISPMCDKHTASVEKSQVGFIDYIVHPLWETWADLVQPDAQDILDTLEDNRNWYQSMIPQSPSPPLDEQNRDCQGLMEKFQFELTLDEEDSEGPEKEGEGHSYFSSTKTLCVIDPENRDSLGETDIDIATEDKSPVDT
# Description: (§4) An experiment to check inhibition of various subtypes of the target Phosphodiesterase (PDE) enzyme in in-vitro assay was performed. […] PDE1A, PDE2A, PDE4A, PDE4B, PDE4C, PDE4D, PDE5A, PDE7A, PDE9A, PDE10A.
# Human IL-6 = assay: IL-6 release from stimulated PBMCs, ELISA; assay type: cell-based; conditions: LPS 100 ng/mL, 18 hrs
# Description: as §1, §2, §3
# Human IL-12 = assay: IL-12 release from stimulated PBMCs, ELISA; assay type: cell-based; conditions: IFN-γ+LPS, 18 hrs
# Description: as §1, §2, §3
# Human IFN-γ = assay: IFN-γ release from stimulated PBMCs, ELISA; assay type: cell-based; conditions: LPS 100 ng/mL, 18 hrs
# Description: as §1, §2, §3
# PDE1A = PDE1A (Homo sapiens, UniProt P54750); assay: Fluorescence polarization assay PDE1A; assay type: biochemical; conditions: substrate cGMP, Ca-CaM
# Sequence of PDE1A (P54750 whole entry, species assumed): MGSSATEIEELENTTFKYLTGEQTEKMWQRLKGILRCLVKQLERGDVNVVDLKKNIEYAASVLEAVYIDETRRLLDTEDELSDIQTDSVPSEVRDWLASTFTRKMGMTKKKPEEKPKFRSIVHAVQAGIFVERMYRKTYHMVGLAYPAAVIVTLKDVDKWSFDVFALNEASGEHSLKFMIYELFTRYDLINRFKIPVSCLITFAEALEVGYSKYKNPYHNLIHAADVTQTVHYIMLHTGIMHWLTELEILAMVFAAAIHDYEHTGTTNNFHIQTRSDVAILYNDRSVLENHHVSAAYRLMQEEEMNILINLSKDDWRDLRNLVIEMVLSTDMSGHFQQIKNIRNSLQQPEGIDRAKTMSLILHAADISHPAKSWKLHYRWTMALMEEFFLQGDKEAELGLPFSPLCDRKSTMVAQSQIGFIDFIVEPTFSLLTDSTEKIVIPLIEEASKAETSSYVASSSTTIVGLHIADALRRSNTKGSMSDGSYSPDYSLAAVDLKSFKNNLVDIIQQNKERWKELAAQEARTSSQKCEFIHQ
# Description: as §4
# Human IL-17F = assay: IL-17F release from stimulated PBMCs, ELISA; assay type: cell-based; conditions: PMA+Ionomycin, 18 hrs
# Description: as §1, §2, §3
# TNF-α = TNF-α release from stimulated HaCaT cells, ELISA; assay type: cell-based, human; conditions: IFN-γ 50 ng/mL, 48 hrs
# Description: (§5) HaCaT cells were maintained in T-75 cm2 flask in Dulbecco's modified Eagle medium supplemented with FBS (10%), L-glutamine (2 mM), penicillin (100 ug/ml), streptomycin (100 ug/ml) at 37° C. in 5% CO2 incubator. Cell growth was maintained to 70-80% confluence for seeding and vehicle used was 1% DMSO. The cell viability was checked at various time points using Alamar blue and fluorescence readings were taken at excitation of 544 nm and emission of 590 nm.
# (§6) HaCaT cells were stimulated with different stimulators as follows: • a. Cells were exposed to stimulator LPS at 1 μg/mL for 48 hrs to stimulate IL-1β • b. Cells were exposed to stimulator IFN-γ at 50 ng/mL for 48 hrs to stimulate TNF-α, IL-6
# (§7) After 48 hrs supernatants were collected and centrifuged to remove any cell debris and aliquots were used for ELISA.
# PDE2A = PDE2A (Homo sapiens, UniProt O00408); assay: Fluorescence polarization assay PDE2A; assay type: biochemical; conditions: substrate cGMP
# Sequence of PDE2A (O00408 whole entry, species assumed): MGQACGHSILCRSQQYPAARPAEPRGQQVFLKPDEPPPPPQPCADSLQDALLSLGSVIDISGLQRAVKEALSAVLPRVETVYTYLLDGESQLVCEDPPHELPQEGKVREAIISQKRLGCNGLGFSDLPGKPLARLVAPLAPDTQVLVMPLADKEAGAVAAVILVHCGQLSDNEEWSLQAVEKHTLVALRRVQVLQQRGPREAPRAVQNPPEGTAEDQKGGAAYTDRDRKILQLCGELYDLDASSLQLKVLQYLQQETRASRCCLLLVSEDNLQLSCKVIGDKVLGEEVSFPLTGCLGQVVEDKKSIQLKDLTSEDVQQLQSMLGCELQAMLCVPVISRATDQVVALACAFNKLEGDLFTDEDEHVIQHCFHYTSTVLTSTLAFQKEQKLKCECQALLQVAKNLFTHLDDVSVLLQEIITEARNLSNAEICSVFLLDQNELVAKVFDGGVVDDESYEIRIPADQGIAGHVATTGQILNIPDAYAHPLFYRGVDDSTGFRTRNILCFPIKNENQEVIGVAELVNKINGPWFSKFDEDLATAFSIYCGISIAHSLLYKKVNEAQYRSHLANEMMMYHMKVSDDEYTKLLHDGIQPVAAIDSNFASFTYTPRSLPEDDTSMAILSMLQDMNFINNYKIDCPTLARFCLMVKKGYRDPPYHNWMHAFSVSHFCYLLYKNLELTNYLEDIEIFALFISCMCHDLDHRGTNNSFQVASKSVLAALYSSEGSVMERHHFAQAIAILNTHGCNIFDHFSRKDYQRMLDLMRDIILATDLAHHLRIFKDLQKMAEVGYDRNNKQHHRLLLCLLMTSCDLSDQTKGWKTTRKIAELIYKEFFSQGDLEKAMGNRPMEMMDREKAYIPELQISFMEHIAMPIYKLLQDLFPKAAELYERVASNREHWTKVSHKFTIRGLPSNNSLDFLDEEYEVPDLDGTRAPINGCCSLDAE
# Description: as §4
# Human IL-17A = assay: IL-17A release from stimulated PBMCs, ELISA; assay type: cell-based; conditions: PMA+Ionomycin, 18 hrs
# Description: as §1, §2, §3
# Human IL-1β = assay: IL-1β release from stimulated PBMCs, ELISA; assay type: cell-based; conditions: LPS 100 ng/mL, 18 hrs
# Description: as §1, §2, §3
# Human TNF-α = assay: TNF-α release from stimulated PBMCs, ELISA; assay type: cell-based; conditions: LPS 100 ng/mL, 18 hrs
# Description: as §1, §2, §3
# HaCaT cells = assay: Cell viability of HaCaT cells, Alamar blue; assay type: cell-based, human
# Description: as §5
# human PBMCs = assay: Cell viability of human PBMCs, Alamar blue; assay type: cell-based
# Description: as §1
# IL-6 = IL-6 release from stimulated HaCaT cells, ELISA; assay type: cell-based, human; conditions: IFN-γ 50 ng/mL, 48 hrs
# Description: as §5, §6, §7
# Human IL-22 = assay: IL-22 release from stimulated PBMCs, ELISA; assay type: cell-based; conditions: PMA+Ionomycin, 18 hrs
# Description: as §1, §2, §3
smiles,measurement,setting,value
CC(=O)Oc1ccccc1C(=O)Nc1ncc([N+](=O)[O-])s1 [Nitazoxanide],Human IL-10 concentration,Human IL-10; 1 μM,1799 pg/mL
same,Human IL-10 concentration,Human IL-10; 10 μM,512 pg/mL
same,Human IL-10 concentration,Human IL-10; 25 μM,76 pg/mL
same,Human IL-10 concentration,Human IL-10; 50 μM,42 pg/mL
same,IC50,PDE4B,> 500 µM
same,Human IL-6 concentration,Human IL-6; 1 μM,5520 pg/mL
same,Human IL-6 concentration,Human IL-6; 10 μM,5342 pg/mL
same,Human IL-6 concentration,Human IL-6; 25 μM,3567 pg/mL
same,Human IL-6 concentration,Human IL-6; 50 μM,2531 pg/mL
same,Human IL-12 concentration,Human IL-12; 1 μM,3892 pg/mL
same,Human IL-12 concentration,Human IL-12; 10 μM,1500 pg/mL
same,Human IL-12 concentration,Human IL-12; 25 μM,406 pg/mL
same,Human IL-12 concentration,Human IL-12; 50 μM,101 pg/mL
same,Human IFN-γ concentration,Human IFN-γ; 1 μM,217 pg/mL
same,Human IFN-γ concentration,Human IFN-γ; 25 μM,152 pg/mL
same,Human IFN-γ concentration,Human IFN-γ; 50 μM,191 pg/mL
same,IC50,PDE1A,137 µM
same,Human IL-17F concentration,Human IL-17F; 1 μM,166 pg/mL
same,Human IL-17F concentration,Human IL-17F; 10 μM,0 pg/mL
same,Human IL-17F concentration,Human IL-17F; 25 μM,0 pg/mL
same,Human IL-17F concentration,Human IL-17F; 50 μM,0 pg/mL
same,TNF-α Conc.,TNF-α; 0.1 μM,3 ± 0.2 pg/mL
same,TNF-α Conc.,TNF-α; 0.5 μM,2.5 ± 0.5 pg/mL
same,TNF-α Conc.,TNF-α; 1 μM,2.3 ± 0.4 pg/mL
same,IC50,PDE2A,67.5 µM
same,Human IL-17A concentration,Human IL-17A; 1 μM,39 pg/mL
same,Human IL-17A concentration,Human IL-17A; 10 μM,0 pg/mL
same,Human IL-17A concentration,Human IL-17A; 25 μM,0 pg/mL
same,Human IL-17A concentration,Human IL-17A; 50 μM,0 pg/mL
same,Human IL-1β concentration,Human IL-1β; 1 μM,4470 pg/mL
same,Human IL-1β concentration,Human IL-1β; 10 μM,3971 pg/mL
same,Human IL-1β concentration,Human IL-1β; 25 μM,3203 pg/mL
same,Human IL-1β concentration,Human IL-1β; 50 μM,2506 pg/mL
same,Human TNF-α concentration,Human TNF-α; 1 μM,5708 pg/mL
same,Human TNF-α concentration,Human TNF-α; 10 μM,3472 pg/mL
same,Human TNF-α concentration,Human TNF-α; 25 μM,3679 pg/mL
same,Human TNF-α concentration,Human TNF-α; 50 μM,2896 pg/mL
same,% Viability (±S.E.M.),"HaCaT cells; 0.1 μM, 24 hrs",89 ± 1%
same,% Viability (±S.E.M.),"HaCaT cells; 0.1 μM, 48 hrs",99 ± 9%
same,% Viability (±S.E.M.),"HaCaT cells; 0.1 μM, 72 hrs",103 ± 3%
same,% Viability (±S.E.M.),"HaCaT cells; 1 μM, 24 hrs",81 ± 3%
same,% Viability (±S.E.M.),"HaCaT cells; 1 μM, 48 hrs",86 ± 8%
same,% Viability (±S.E.M.),"HaCaT cells; 1 μM, 72 hrs",91 ± 2%
same,% Viability (±S.E.M.),"HaCaT cells; 10 μM, 24 hrs",41 ± 1%
same,% Viability (±S.E.M.),"HaCaT cells; 10 μM, 48 hrs",40 ± 2%
same,% Viability (±S.E.M.),"HaCaT cells; 10 μM, 72 hrs",46 ± 3%
same,% Viability (±S.E.M.),"HaCaT cells; 50 μM, 24 hrs",18 ± 1%
same,% Viability (±S.E.M.),"HaCaT cells; 50 μM, 48 hrs",15 ± 2%
same,% Viability (±S.E.M.),"HaCaT cells; 50 μM, 72 hrs",18 ± 1%
same,% Viability (±S.E.M.),"HaCaT cells; 100 μM, 24 hrs",17 ± 1%
same,% Viability (±S.E.M.),"HaCaT cells; 100 μM, 48 hrs",13 ± 1%
same,% Viability (±S.E.M.),"HaCaT cells; 100 μM, 72 hrs",17 ± 1%
same,Concentration which exhibited cell viability of 70%,"HaCaT cells; HaCaT cells, maximum concentration for stimulation study",1 µM
same,% Viability (±S.E.M.),"human PBMCs; 0.01 μM, 24 hrs",97 ± 1%
same,% Viability (±S.E.M.),"human PBMCs; 0.01 μM, 48 hrs",106 ± 8%
same,% Viability (±S.E.M.),"human PBMCs; 0.01 μM, 72 hrs",113 ± 10%
same,% Viability (±S.E.M.),"human PBMCs; 1 μM, 24 hrs",91 ± 2%
same,% Viability (±S.E.M.),"human PBMCs; 1 μM, 48 hrs",105 ± 7%
same,% Viability (±S.E.M.),"human PBMCs; 1 μM, 72 hrs",106 ± 2%
same,% Viability (±S.E.M.),"human PBMCs; 100 μM, 24 hrs",76 ± 4%
same,% Viability (±S.E.M.),"human PBMCs; 100 μM, 48 hrs",42 ± 4%
same,% Viability (±S.E.M.),"human PBMCs; 100 μM, 72 hrs",11 ± 3%
same,Concentration which exhibited cell viability of 70%,"human PBMCs; PBMCs, maximum concentration for stimulation study",50 µM
same,IL-6 Conc.,IL-6; 0.1 μM,83 ± 1 pg/mL
same,IL-6 Conc.,IL-6; 0.5 μM,79 ± 4 pg/mL
same,IL-6 Conc.,IL-6; 1 μM,70 ± 4 pg/mL
same,Human IL-22 concentration,Human IL-22; 1 μM,5612 pg/mL
same,Human IL-22 concentration,Human IL-22; 10 μM,1093 pg/mL
same,Human IL-22 concentration,Human IL-22; 25 μM,228 pg/mL
same,Human IL-22 concentration,Human IL-22; 50 μM,0 pg/mL
